Assay [1] deals with T1, MtbNei2 (Rv3297) (Mycobacterium tuberculosis, UniProt P9WNC1).
T1 sequence (P9WNC1 1-255): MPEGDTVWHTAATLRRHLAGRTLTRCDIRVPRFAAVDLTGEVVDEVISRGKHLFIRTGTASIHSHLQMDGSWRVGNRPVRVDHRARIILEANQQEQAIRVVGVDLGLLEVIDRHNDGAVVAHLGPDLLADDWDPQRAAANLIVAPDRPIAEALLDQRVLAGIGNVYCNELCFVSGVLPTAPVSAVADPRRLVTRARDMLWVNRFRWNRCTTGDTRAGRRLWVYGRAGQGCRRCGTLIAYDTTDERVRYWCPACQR
In words: In vitro inhibition of Uracil DNA glycosylase activity of MtbNei2. Type of assay: biochemical. Particulars: for Inhibition of Uracil DNA glycosylase activity (in words): 50-800 µM inhibitor, 80 nM MtbNei2.

The target in assay [2] is T1, MtbNei2 (Rv3297). Kind of assay: In vitro inhibition of AP site cleavage. Type of assay: biochemical. Particulars: for Inhibition of AP site cleavage activity (in words): 50-800 µM inhibitor, 80 nM MtbNei2.

This note sets out measurements from publication PMC5613217 (Biochemistry and Biophysics Reports, 2017).

By IC50 is commonly meant the concentration that gives 50% inhibition. Low readings indicate higher potency, high ones lower potency. For `COc1c2c(cc3c1[C@@H]1Oc4c(ccc(O)c4CC=C(C)C)[C@@H]1CO3)OC(C)(C)C=C2` [NSC250430, Gangetin], on MtbNei2 (Rv3297) [1], 76.2 µM corresponded to half-maximal inhibition (IC50) and the “Inhibition of Uracil DNA glycosylase activity (in words)” value is given as “good inhibition”. Also, at MtbNei2 (Rv3297) [2], inhibition was half-maximal at 43.6 µM (IC50) and the “Inhibition of AP site cleavage activity (in words)” value is on record as “good inhibition”.

In the case of `C[C@H]1Oc2cc3c(-c4c(O)cc(O)c5c(O)c6c(cc45)O[C@H](C)[C@@H](C)C6=O)c(O)cc(O)c3c(O)c2C(=O)[C@@H]1C` [NSC345647, Chaetochromin], at MtbNei2 (Rv3297) [1], inhibition was half-maximal at 92.7 µM (IC50) and the “Inhibition of Uracil DNA glycosylase activity (in words)” value was “good inhibition”. Also, at MtbNei2 (Rv3297) [2], the IC50 is 84.7 µM and the “Inhibition of AP site cleavage activity (in words)” value is listed as “good inhibition”.
